According to patent US8445500B2, “Pesticidal compositions” (Dow AgroSciences, LLC., priority 2007, dated 2013):

Columns and labels:
Format in all cases: in vivo
[1] = tested on: Root-Knot Nematode Meloidogyne incognita; assay: Insecticidal assay 5, root-knot nematode, 96-well plate with foxtail millet; details: M. incognita eggs; 5 micrograms of compound per well; soil/polymer media with foxtail millet seeds; assessed after 7 days at 27° C.
Description: 5. Insecticidal Assay for Root-Knot Nematode Meloidogyne incognita:
Objective: To evaluate the insecticidal activity of compounds against M. incognita through contact and ingestion.
Test unit preparation: Empty, 96-well microtiter plates are loaded onto a robotic dispensing system prior to application.
Formulation and application: A robotic system dispenses 25 microliters of ethanol and 5 micrograms of compound, diluted in dimethyl sulfoxide, into each well of a 96-well flat-bottomed, microtiter plate. There are 3 replicates per treatment. The plates are held 24 hours to allow proper drying prior to further preparation and infestation.
Additional test unit preparation and infestation: After drying, 16 milligrams of media consisting of 2 parts fine soil and 1 part absorbent polymer is added to each well of the treated 96-well plates. Once the media is in place, a 200 microliter aqueous suspension of rootknot nematode eggs is added to each well forming a gelatinous substrate. Into each of these wells are distributed 10 foxtail millet Seteria italica seeds. Following this “planting” an identical plate is sealed to the top of the treated plate to allow space for the millet to grow.
Holding and assessment: Once the lids are in place, the plates are held at 27° C. and 75% relative humidity under bright indirect lights. […]

[2] = tested on: Beet Armyworm Spodoptera exigua; assay: Insecticidal assay 7, beet armyworm, diet cups; details: S. exigua second instar; 250 microliters of 400 ppm and 25 ppm solutions on diet in cups; assessed 5 days after infestation
Description: 7. Insecticidal Assay for Beet Armyworm Spodoptera exigua:
Objective: To assess the insecticidal activity of compounds against S. exigua, through contact and ingestion.
Test unit preparation: 8 milliliters of lepidopteran diet is dispensed into one ounce clear plastic portion cups. The diet is allowed to cool before storage or use.
Formulation and application: Eight milligrams of technical compound is dissolved in 20 milliliters of 2:1 acetone:tap water diluent to form a 400 ppm solution. An aliquot of this solution is also used to prepare a 25 parts per million concentration. 250 microliters of each solution is then pipetted onto the surface the diet in each cup. Each treatment is replicated 10 times.
Infestation: Once the treated cups have dried, a single second-instar beet armyworm is placed on the treated diet in each cup.
Holding and assessment: Treated and infested diet cups or are capped and then held in a chamber at 25° C. and 50% relative humidity. 14-hours light:10-hours dark. 5 days after infestation the larvae are assessed for insecticidal effects.

[3] = tested on: Green Peach Aphid Myzus persicae; assay: Insecticidal assay 15, green peach aphid, foliar spray on cabbage seedlings; details: M. persicae on cabbage seedlings; 50 and 5 parts per million spray solutions; assessed 3 days after treatment
Description: 15. Insecticidal Assay for Green Peach Aphid Myzus persicae:
Objective: To assess the insecticidal activity of compounds against M. persicae through contact and ingestion.
(§1) Formulation and application: One (1) milligram of each technical synthetic organic compound was dissolved in 1 milliliters of a 90:10 acetone:ethanol solvent. This 1 milliliter of chemical solution was added to 19 milliliters of distilled water containing 0.05% Tween 20 surfactant to produce a 50 parts per million spray solution. A 5 part per million solution was then prepared from the 50 part per million stock.
Test unit preparation and infestation: Cabbage seedlings, with 2 to 3 first true leaves emerged (12 days after planting) are culled to 1 plant per 3 inch pot. Treatments consisted of 4 replicates. Four days prior to application, heavily infested colony turnip leaves are shaken above the untreated plants. Shaking dislodges the aphids and they migrate to succulent plant material. Plants are examined to ensure even infestation prior to application.
(§2) Application: The plants are sprayed on both sides of all leaves with a hand-held atomizing sprayer until solutions are completely used. […]
Holding and assessment: The plants are allowed to air dry and are then held for 3 days in a controlled room at 26° C. and 40% relative humidity. 3 days after treatment the aphids are assessed for insecticidal effects.

[4] = tested on: Western Tarnished Plant Bug Lygus hesperus; assay: Insecticidal assay 13, western tarnished plant bug, sprayed egg-infested snow pea pods; details: L. hesperus eggs and emergent nymphs; airbrush spray on egg-infested snow pea pods; assessed after 10 days
Description: 13. Insecticidal Assay for Western Tarnished Plant Bug Lygus hesperus:
Objective: Assessment of the insecticidal activity of compounds against L. hesperus through egg contact and contact/ingestion activity on emergent nymphs.
Test Unit preparation: Female lygus are allowed to oviposit on snow pea pods, these pods are then placed in plastic Petri dishes.
Formulation and application: Compounds are dissolved in acetone and further dilutes with water containing 0.025% Tween 20. The solutions are sprayed on the Petri dishes and the egg-infested snow pea pods using an airbrush.
Holding and assessment: The Petri dishes are held for 10 days under controlled conditions at which time the emerging nymphs are assessed for insecticidal effects.

[5] = tested on: German Cockroach Blattella germanica; assay: Insecticidal assay 12, German cockroach, 96-well diet plate; details: B. germanica second instar; 2 microliters of 4-microgram/microliter in DMSO per well on diet; assessed after 6 and 13 days at 29° C.
Description: 12. Insecticidal Assay for German Cockroach Blattella germanica: Objective: Assessment of the insecticidal activity of compounds against B. germanica through contact and ingestion. Test unit preparation: A robotic system dispenses 100 microliters of freshly prepared artificial diet into each well of a 96-well microtiter plate. The plates are held overnight at 22° C. to allow proper cooling and drying prior to treatment and infestation. Compound formulation and application: Compounds are formulated in dimethyl sulfoxide at 4-microgram/microliter. A robotic system automatically dispenses 2 microliters of each compound solution into individual wells of the prepared test units. Each treatment is replicated 3 times. After application, plates are allowed to dry 5-6 hours in a fume hood. When dry, the plates are covered with a matching lid and held overnight in a sealed container prior to infestation. Infestation: One day after application, each treated well is infested with 3-5, second instar cockroaches. Holding and assessment: Once infested, the plates are covered with a clear plastic lid. The plates are stacked and held in an incubator at 29° C. After 6 and 13 days respectively, each well is examined by means of a dissecting microscope for insecticidal effects.

[6] = tested on: Cotton Aphid Aphis gossypii; assay: Insecticidal assay 14, cotton aphid, foliar spray on squash; details: A. gossypii all life stages on squash; 50 and 5 parts per million spray solutions; assessed 3 days after treatment
Description: 14. Insecticidal Assay for Cotton Aphid Aphis gossypii:
Objective: To assess the insecticidal activity of compounds against A. gossypii through contact and ingestion.
as §1
Test unit preparation and infestation: One week old ‘Crookneck’ squash plants, trimmed to one cotyledon per plant, are infested with cotton aphids (all life stages). Sections of heavily infested colony squash leaves were placed on the untreated squash cotyledons 16-20 hrs prior to spraying. As the infested sections dried out, the aphids moved to the succulent plant material. Plants are examined to ensure even infestation prior to application.
as §2
Holding and assessment: The plants are allowed to air dry and are then held for 3 days in a controlled room at 26° C. and 40% relative humidity prior to grading. 3 days after treatment the aphids are assessed for insecticidal effects.

Measured: insecticidal activity

N#Cc1c(NNc2c(Cl)cc(C(F)(F)F)cc2Cl)nc(C(F)(F)F)nc1C(F)(F)F [Compound 11, 4-[N′-(2,6-dichloro-4-trifluoromethyl-phenyl)-hydrazino]-2,6-bis-trifluoromethyl-pyrimidine-5-carbonitrile]
significant insecticidal activity: all assays above
